Data: ChEMBL document CHEMBL1909569 (Bioorg Med Chem Lett, 2011)
Values after ≈ are worked out from the molar mass of the structure shown.

Tests used:
Escherichia coli [1] = experiment: Antimicrobial activity against wild type Escherichia coli DH5[alpha] after 16 to 20 hrs; assay type: functional
Escherichia coli [2] = experiment: Antimicrobial activity against wild type Escherichia coli TG2 after 16 to 20 hrs; assay type: functional
[3] = system: Mycobacterium tuberculosis; experiment: Antimicrobial activity against replicating Mycobacterium tuberculosis after 8 days by micro plate alamar blue assay; assay type: functional; settings: 192 h
[4] = system: Mycobacterium tuberculosis; experiment: Antimicrobial activity against non-replicating Mycobacterium tuberculosis after 11 days by luminescence based low oxygen recovery assay; assay type: functional; settings: 264 h
Escherichia coli [5] = experiment: Antimicrobial activity against Escherichia coli EC2880 mutant after 16 to 20 hrs; assay type: functional
[6] = molecular target: T1, DNA-directed RNA polymerase subunit beta (Mycobacterium tuberculosis, UniProt P9WGY9); experiment: (§1) Inhibition of wild type Mycobacterium tuberculosis RNA polymerase after 10 mins using ribo green staining by rolling circle transcription assay
T1 sequence (P9WGY9 whole entry): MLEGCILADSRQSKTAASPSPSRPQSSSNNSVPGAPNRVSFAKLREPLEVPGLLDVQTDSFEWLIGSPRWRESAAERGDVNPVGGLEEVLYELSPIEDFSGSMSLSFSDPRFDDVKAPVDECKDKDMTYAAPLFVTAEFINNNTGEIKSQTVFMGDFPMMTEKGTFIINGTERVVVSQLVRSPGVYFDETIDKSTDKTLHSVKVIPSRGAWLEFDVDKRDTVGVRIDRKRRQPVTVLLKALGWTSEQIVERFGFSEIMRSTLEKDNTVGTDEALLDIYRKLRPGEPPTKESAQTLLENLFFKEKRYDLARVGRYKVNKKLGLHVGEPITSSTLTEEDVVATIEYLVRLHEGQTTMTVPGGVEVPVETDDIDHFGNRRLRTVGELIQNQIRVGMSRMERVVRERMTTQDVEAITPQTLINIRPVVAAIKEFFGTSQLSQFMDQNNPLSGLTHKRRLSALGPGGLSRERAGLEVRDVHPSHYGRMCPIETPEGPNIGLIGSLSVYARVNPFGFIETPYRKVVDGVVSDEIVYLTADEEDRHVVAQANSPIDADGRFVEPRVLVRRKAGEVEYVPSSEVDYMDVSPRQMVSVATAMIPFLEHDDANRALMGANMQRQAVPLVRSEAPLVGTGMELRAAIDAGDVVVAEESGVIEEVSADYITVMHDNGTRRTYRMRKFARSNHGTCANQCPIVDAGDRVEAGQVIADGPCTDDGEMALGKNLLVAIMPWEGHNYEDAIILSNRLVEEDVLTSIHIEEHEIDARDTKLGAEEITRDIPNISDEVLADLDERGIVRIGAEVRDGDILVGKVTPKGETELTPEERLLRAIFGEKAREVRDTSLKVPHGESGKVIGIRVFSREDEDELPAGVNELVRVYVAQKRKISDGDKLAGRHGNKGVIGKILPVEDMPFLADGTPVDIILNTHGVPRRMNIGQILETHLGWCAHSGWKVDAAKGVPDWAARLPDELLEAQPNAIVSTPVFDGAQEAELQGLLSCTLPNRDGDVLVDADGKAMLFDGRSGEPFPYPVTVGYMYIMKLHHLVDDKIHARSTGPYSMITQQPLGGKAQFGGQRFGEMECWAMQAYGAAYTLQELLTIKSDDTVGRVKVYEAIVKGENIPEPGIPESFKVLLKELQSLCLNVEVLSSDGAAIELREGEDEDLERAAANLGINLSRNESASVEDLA

[7] = molecular target: T2, DNA-directed RNA polymerase subunit beta (Mycobacterium tuberculosis) (UniProt P9WGY9); experiment: as §1; set-up: unit not given here
T2 sequence (whole entry): T1 sequence (P9WGY9 whole entry)

Compound	MIC90 (Escherichia coli [1]) [µM]	MIC90 (Escherichia coli [2]) [µM]	MIC90 [3] [µM]	MIC90 [4] [µM]	MIC90 (Escherichia coli [5]) [µM]	IC50 [6] [nM]	logIC50 [7]
CO[C@H]1/C=C/O[C@@]2(C)Oc3c(C)c(OS(=O)(=O)c4ccc(C)cc4)c4c(c3C2=O)C(=O)C(/C=N/N2CCN(C)CC2)=C(NC(=O)/C(C)=C\C=C\[C@H](C)[C@H](O)[C@@H](C)[C@@H](O)[C@@H](C)[C@H](OC(C)=O)[C@@H]1C)C4=O	> 100	> 100	–	–	–	–	–
CO[C@H]1/C=C/O[C@@]2(C)Oc3c(C)c(NCc4ccccc4)c4c(c3C2=O)C(=O)C(/C=N/N2CCN(C)CC2)=C(NC(=O)/C(C)=C\C=C\[C@H](C)[C@H](O)[C@@H](C)[C@@H](O)[C@@H](C)[C@H](OC(C)=O)[C@@H]1C)C4=O	–	–	> 4.4	> 17.6	–	–	–
CO[C@H]1/C=C/O[C@@]2(C)Oc3c(C)c(O)c4c(c3C2=O)C(=O)C=C(NC(=O)/C(C)=C\C=C\[C@H](C)[C@H](O)[C@@H](C)[C@@H](O)[C@@H](C)[C@H](OC(C)=O)[C@@H]1C)C4=O [RIFAMYCIN S]	> 100	100 (≈ 69.6 µg/mL)	0.03 (≈ 0.0209 µg/mL)	0.4 (≈ 0.278 µg/mL)	0.78 (≈ 0.543 µg/mL)	< 10	–
CO[C@H]1/C=C/O[C@@]2(C)Oc3c(C)c(N)c4c(c3C2=O)C(=O)C=C(NC(=O)/C(C)=C\C=C\[C@H](C)[C@H](O)[C@@H](C)[C@@H](O)[C@@H](C)[C@H](OC(C)=O)[C@@H]1C)C4=O	> 100	> 100	1.41 (≈ 0.98 µg/mL)	22.2 (≈ 15.4 µg/mL)	12.5 (≈ 8.68 µg/mL)	4400	0.644
C/C=C/Nc1c(C)c2c3c4c1C(=O)C(=CC4=O)NC(=O)/C(C)=C\C=C\[C@H](C)[C@H](O)[C@@H](C)[C@@H](O)[C@@H](C)[C@H](OC(C)=O)[C@H](C)[C@@H](OC)/C=C/O[C@@](C)(O2)C3=O	–	–	5.2 (≈ 3.82 µg/mL)	18.3 (≈ 13.4 µg/mL)	–	–	–
CNc1c(C)c2c3c4c1C(=O)C(=CC4=O)NC(=O)/C(C)=C\C=C\[C@H](C)[C@H](O)[C@@H](C)[C@@H](O)[C@@H](C)[C@H](OC(C)=O)[C@H](C)[C@@H](OC)/C=C/O[C@@](C)(O2)C3=O	–	–	> 5.6	20.6 (≈ 14.6 µg/mL)	–	–	–
C/C=C/Nc1c(C)c2c3c4c(O)c(/C=N/N5CCN(C)CC5)c(c(O)c14)NC(=O)/C(C)=C\C=C\[C@H](C)[C@H](O)[C@@H](C)[C@@H](O)[C@@H](C)[C@H](OC(C)=O)[C@H](C)[C@@H](OC)/C=C/O[C@@](C)(O2)C3=O	–	–	> 4.6	> 18.6	–	–	–
CO[C@H]1/C=C/O[C@@]2(C)Oc3c(C)c(NCc4ccccc4)c4c(c3C2=O)C(=O)C=C(NC(=O)/C(C)=C\C=C\[C@H](C)[C@H](O)[C@@H](C)[C@@H](O)[C@@H](C)[C@H](OC(C)=O)[C@@H]1C)C4=O	–	–	2.4 (≈ 1.88 µg/mL)	> 20.4	–	–	–
CO[C@H]1/C=C/O[C@@]2(C)Oc3c(c4c5c(nn(CCO)c5c3C)C(=CC4=O)NC(=O)/C(C)=C\C=C\[C@H](C)[C@H](O)[C@@H](C)[C@@H](O)[C@@H](C)[C@H](OC(C)=O)[C@@H]1C)C2=O	–	–	> 5.4	> 21.7	–	–	–
CO[C@H]1/C=C/O[C@@]2(C)Oc3c(C)c(NC4CCCCCC4)c4c(O)c(c(/C=N/N5CCN(C)CC5)c(O)c4c3C2=O)NC(=O)/C(C)=C\C=C\[C@H](C)[C@H](O)[C@@H](C)[C@@H](O)[C@@H](C)[C@H](OC(C)=O)[C@@H]1C	–	–	3.8 (≈ 3.49 µg/mL)	> 17.4	–	–	–
O=[N+]([O-])c1cn2c(n1)OC[C@@H](OCc1ccc(OC(F)(F)F)cc1)C2 [PRETOMANID]	–	–	0.66 (≈ 0.237 µg/mL)	2.3 (≈ 0.826 µg/mL)	–	–	–
CO[C@H]1/C=C/O[C@@]2(C)Oc3c(c4c5c(nn(CCO)c5c3C)C(=C(/C=N/N3CCN(C)CC3)C4=O)NC(=O)/C(C)=C\C=C\[C@H](C)[C@H](O)[C@@H](C)[C@@H](O)[C@@H](C)[C@H](OC(C)=O)[C@@H]1C)C2=O	> 100	> 100	3.9 (≈ 3.36 µg/mL)	> 18.6	> 12.5	139	-0.856
CO[C@H]1/C=C/O[C@@]2(C)Oc3c(C)c(NCCO)c4c(c3C2=O)C(=O)C=C(NC(=O)/C(C)=C\C=C\[C@H](C)[C@H](O)[C@@H](C)[C@@H](O)[C@@H](C)[C@H](OC(C)=O)[C@@H]1C)C4=O	–	–	5.32 (≈ 3.93 µg/mL)	> 21.7	–	–	–
CCNc1c(C)c2c3c4c(O)c(/C=N/N5CCN(C)CC5)c(c(O)c14)NC(=O)/C(C)=C\C=C\[C@H](C)[C@H](O)[C@@H](C)[C@@H](O)[C@@H](C)[C@H](OC(C)=O)[C@H](C)[C@@H](OC)/C=C/O[C@@](C)(O2)C3=O	–	–	> 4.7	> 18.8	–	–	–
COc1c(N2C[C@@H]3CCCN[C@@H]3C2)c(F)cc2c(=O)c(C(=O)O)cn(C3CC3)c12 [MOXIFLOXACIN]	–	–	0.64 (≈ 0.257 µg/mL)	4.3 (≈ 1.73 µg/mL)	–	–	–
CO[C@H]1/C=C/O[C@@]2(C)Oc3c(C)c(O)c4c(O)c(c(/C=N/N5CCN(C)CC5)c(O)c4c3C2=O)NC(=O)/C(C)=C\C=C\[C@H](C)[C@H](O)[C@@H](C)[C@@H](O)[C@@H](C)[C@H](OC(C)=O)[C@@H]1C [RIFAMPIN]	12.5 (≈ 10.3 µg/mL)	12.5 (≈ 10.3 µg/mL)	0.13 (≈ 0.107 µg/mL)	1.9 (≈ 1.56 µg/mL)	0.1 (≈ 0.0823 µg/mL)	–	–
CO[C@H]1/C=C/O[C@@]2(C)Oc3c(C)c(NCCO)c4c(O)c(c(/C=N/N5CCN(C)CC5)c(O)c4c3C2=O)NC(=O)/C(C)=C\C=C\[C@H](C)[C@H](O)[C@@H](C)[C@@H](O)[C@@H](C)[C@H](OC(C)=O)[C@@H]1C	–	–	> 4.6	> 18.5	–	–	–
CO[C@H]1/C=C/O[C@@]2(C)Oc3c(C)c(N(C)C)c4c(c3C2=O)C(=O)C=C(NC(=O)/C(C)=C\C=C\[C@H](C)[C@H](O)[C@@H](C)[C@@H](O)[C@@H](C)[C@H](OC(C)=O)[C@@H]1C)C4=O	> 100	> 100	1.8 (≈ 1.3 µg/mL)	5.4 (≈ 3.9 µg/mL)	12.5 (≈ 9.04 µg/mL)	503	-0.298
C/C=C/Nc1c(C)c2c3c4c1C(=O)C(=C(/C=N/N1CCN(C)CC1)C4=O)NC(=O)/C(C)=C\C=C\[C@H](C)[C@H](O)[C@@H](C)[C@@H](O)[C@@H](C)[C@H](OC(C)=O)[C@H](C)[C@@H](OC)/C=C/O[C@@](C)(O2)C3=O	–	–	> 4.7	> 18.6	–	–	–
CO[C@H]1/C=C/O[C@@]2(C)Oc3c(C)c(NCc4ccccc4)c4c(O)c(c(/C=N/N5CCN(C)CC5)c(O)c4c3C2=O)NC(=O)/C(C)=C\C=C\[C@H](C)[C@H](O)[C@@H](C)[C@@H](O)[C@@H](C)[C@H](OC(C)=O)[C@@H]1C	–	–	> 4.4	> 17.5	–	–	–
CO[C@H]1/C=C/O[C@@]2(C)Oc3c(C)c(SC)c4c(c3C2=O)C(=O)C=C(NC(=O)/C(C)=C\C=C\[C@H](C)[C@H](O)[C@@H](C)[C@@H](O)[C@@H](C)[C@H](OC(C)=O)[C@@H]1C)C4=O	> 100	> 100	2 (≈ 1.45 µg/mL)	1.3 (≈ 0.944 µg/mL)	> 12.5	15	-1.82
CO[C@H]1/C=C/O[C@@]2(C)Oc3c(C)c(NC4CCCCCC4)c4c(c3C2=O)C(=O)C(/C=N/N2CCN(C)CC2)=C(NC(=O)/C(C)=C\C=C\[C@H](C)[C@H](O)[C@@H](C)[C@@H](O)[C@@H](C)[C@H](OC(C)=O)[C@@H]1C)C4=O	–	–	3.9 (≈ 3.57 µg/mL)	13.7 (≈ 12.6 µg/mL)	–	–	–
CCNc1c(C)c2c3c4c1C(=O)C(=C(/C=N/N1CCN(C)CC1)C4=O)NC(=O)/C(C)=C\C=C\[C@H](C)[C@H](O)[C@@H](C)[C@@H](O)[C@@H](C)[C@H](OC(C)=O)[C@H](C)[C@@H](OC)/C=C/O[C@@](C)(O2)C3=O	–	–	> 4.7	> 18.9	–	–	–
NNC(=O)c1ccncc1 [ISONIAZID]	–	–	0.39 (≈ 0.0535 µg/mL)	> 128	–	–	–
CO[C@H]1/C=C/O[C@@]2(C)Oc3c(C)c(NCCO)c4c(c3C2=O)C(=O)C(/C=N/N2CCN(C)CC2)=C(NC(=O)/C(C)=C\C=C\[C@H](C)[C@H](O)[C@@H](C)[C@@H](O)[C@@H](C)[C@H](OC(C)=O)[C@@H]1C)C4=O	–	–	> 4.6	> 18.5	–	–	–
CONc1c(C)c2c3c4c1C(=O)C(=CC4=O)NC(=O)/C(C)=C\C=C\[C@H](C)[C@H](O)[C@@H](C)[C@@H](O)[C@@H](C)[C@H](OC(C)=O)[C@H](C)[C@@H](OC)/C=C/O[C@@](C)(O2)C3=O	–	–	3.8 (≈ 2.75 µg/mL)	12.5 (≈ 9.06 µg/mL)	–	–	–
CCNc1c(C)c2c3c4c1C(=O)C(=CC4=O)NC(=O)/C(C)=C\C=C\[C@H](C)[C@H](O)[C@@H](C)[C@@H](O)[C@@H](C)[C@H](OC(C)=O)[C@H](C)[C@@H](OC)/C=C/O[C@@](C)(O2)C3=O	–	–	5.5 (≈ 3.98 µg/mL)	21.4 (≈ 15.5 µg/mL)	–	–	–
